“And” between values parts separate entries of the source, which are not always exact repeats. Identical values can stand only once.
Tested on: HepaRG cells
Test: Time-dependent PA depletion and PANO formation in cell culture medium of HepaRG cells at 37 °C and 4 °C (LC-MS/MS)
Settings: for PA content in cell culture medium, Mean [%] / reduction of PA content in the supernatant / uptake and toxicity (grading) / PANO formation in cell culture medium / PANO content in cell culture medium, Mean [%]: HepaRG; for PA content in cell culture medium, Mean [%]: 700 nM PA; for PA content in cell culture medium, Mean [%] / PANO content in cell culture medium, Mean [%]: percent of initial PA concentration; for reduction of PA content in the supernatant / PANO formation in cell culture medium: 37 °C; for reduction of PA content in the supernatant: after 24 h, 700 nM; for uptake and toxicity (grading): Figure 2a, toxicity grading with ref 41; for PANO formation in cell culture medium / PANO content in cell culture medium, Mean [%]: 700 nM parent PA; for PANO formation in cell culture medium: up to 24 h
Procedure: In order to measure time-dependent depletion of PA and PANO content in cell culture medium, cells were seeded at a density of 0.2 × 10^6 cells per well in a 6-well plate and cultivated as described in Section 4.2. After four weeks of cultivation, cells were adapted to serum-free medium and medium substituted with insulin, transferrin, selenium (ITS) serum extender (Capricorn Scientific, Ebsdorfergrund, Germany) 48 h prior to PA incubation for optimal LC-MS/MS measurements. […] Samples were taken after 2 h, 4 h, 8 h and 24 h.
Briefly, chromatographic separation of PA/PANO analytes was achieved on a 50 × 2.1 mm Kinetex ™ 2.6 μm CoreShell EVO C18 100 Å column protected by a SecurityGuard ™ ULTRA EVO C 18 2.1 mm guard column (both Phenomenex, Aschaffenburg, Germany) at a flow rate of 0.4 mL/min on a Shimadzu high performance liquid chromatography (HPLC) apparatus (LC-20AB, SIL-20AC HT, CTO-20AC, CBM-20A, Duisburg, Germany) coupled to an API4000 triple quadrupole MS (Sciex, Darmstadt, Germany). The following MS parameters were used for measurements in positive electrospray ionisation (ESI+) mode: ionisation voltage 2500 V, nebuliser gas 50 psi, heating gas 50 psi, curtain gas 30 psi, temperature 600 °C, collision gas level 7. The substance specific parameters are summarized in Kaltner et al. 2019 [79].

CC(C)[C@](O)(C(=O)OCC1=CCN2CC[C@@H](O)[C@@H]12)[C@@H](C)O [Lycopsamine, lycopsamine]
PA content in cell culture medium, Mean [%] (4 °C (cold), 0h): 115.66%
PA content in cell culture medium, Mean [%] (4 °C (cold), 2h): 114.666%
PA content in cell culture medium, Mean [%] (37 °C (warm), 2h): 110.255%
PA content in cell culture medium, Mean [%] (37 °C (warm), 4h): 110.221%
reduction of PA content in the supernatant: only little reduction
PA in medium, Mean [%] (cold, 0h): 100%
PA in medium, single replicates (repl.) (cold, 0h): 100%
PA in medium, Mean [%] (cold, 2h): 98.8899%
PA in medium, single replicates (repl.) (cold, 2h): 94.3912% and 95.7309%
PA in medium, Mean [%] (cold, 4h): 96.1322%
PA in medium, single replicates (repl.) (cold, 4h): 91.7949% and 100.05%
PA in medium, Mean [%] (cold, 8h): 96.74%
PA in medium, single replicates (repl.) (cold, 8h): 94.6446% and 94.7892% and 95.0549%
PA in medium, single replicates (repl.) (cold, 24h): 89.7134% and 94.6663% and 94.1752% and 95.3538%
PA in medium, Mean [%] (warm, 0h): 100%
PA in medium, single replicates (repl.) (warm, 0h): 100%
PA in medium, Mean [%] (warm, 2h): 96.1576%
PA in medium, single replicates (repl.) (warm, 2h): 89.3775%
PA in medium, Mean [%] (warm, 4h): 95.7481%
PA in medium, single replicates (repl.) (warm, 4h): 96.6594%
PA in medium, Mean [%] (warm, 8h): 94.2429%
PA in medium, single replicates (repl.) (warm, 8h): 86.6726% and 92.5981%
PA in medium, single replicates (repl.) (warm, 24h): 92.6515%

C/C=C(/C)C(=O)O[C@@H]1CCN2CC=C(COC(=O)[C@@](O)([C@H](C)O)C(C)(C)O)[C@H]12 [Echimidine, echimidine]
PA content in cell culture medium, Mean [%] (4 °C (cold), 4h): 98.8433%
PA content in cell culture medium, Mean [%] (4 °C (cold), 24h): 89.3074%
PA content in cell culture medium, Mean [%] (37 °C (warm), 2h): 85.2823%
PA content in cell culture medium, Mean [%] (37 °C (warm), 4h): 68.4318%
PA content in cell culture medium, Mean [%] (37 °C (warm), 8h): 40.2531%
PA content in cell culture medium, Mean [%] (37 °C (warm), 24h): 3.384%
uptake and toxicity (grading): medium
PA in medium, Mean [%] (cold, 0h): 100%
PA in medium, single replicates (repl.) (cold, 0h): 100%
PA in medium, Mean [%] (cold, 2h): 97.014%
PA in medium, single replicates (repl.) (cold, 2h): 86.5736%
PA in medium, Mean [%] (cold, 4h): 92.1476%
PA in medium, single replicates (repl.) (cold, 4h): 83.0216% and 84.3494%
PA in medium, Mean [%] (cold, 8h): 94.8515%
PA in medium, single replicates (repl.) (cold, 8h): 82.9788% and 110.397%
PA in medium, Mean [%] (cold, 24h): 82.2598%
PA in medium, single replicates (repl.) (cold, 24h): 57.2342% and 76.5517%
PA in medium, Mean [%] (warm, 0h): 100%
PA in medium, single replicates (repl.) (warm, 0h): 100%
PA in medium, Mean [%] (warm, 2h): 80.9264%
PA in medium, single replicates (repl.) (warm, 2h): 77.0539% and 95.3255%
PA in medium, Mean [%] (warm, 4h): 64.0995%
PA in medium, single replicates (repl.) (warm, 4h): 50.2783% and 58.3297% and 83.6904%
PA in medium, Mean [%] (warm, 8h): 36.9411%
PA in medium, single replicates (repl.) (warm, 8h): 23.0433% and 32.0944% and 55.6854%
PA in medium, Mean [%] (warm, 24h): 2.921%
PA in medium, single replicates (repl.) (warm, 24h): 0.7358% and 1.728% and 6.298%

C/C=C(/C)C(=O)O[C@@H]1CC[N+]2([O-])CC=C(COC(=O)[C@@](O)([C@H](C)O)C(C)(C)O)[C@H]12 (stereo partly drawn) [echimidine N-oxide]
PANO formation in cell culture medium: increased with time

intermedine
PA content in cell culture medium, Mean [%] (4 °C (cold), 0h): 107.988%
PA content in cell culture medium, Mean [%] (4 °C (cold), 2h): 103.883%
PA content in cell culture medium, Mean [%] (4 °C (cold), 4h): 102.163%
PA content in cell culture medium, Mean [%] (4 °C (cold), 8h): 103.746%
PA content in cell culture medium, Mean [%] (4 °C (cold), 24h): 100.748%
PA content in cell culture medium, Mean [%] (37 °C (warm), 0h): 108.544%
PA content in cell culture medium, Mean [%] (37 °C (warm), 2h): 103.044%
PA content in cell culture medium, Mean [%] (37 °C (warm), 4h): 97.3218%
PA content in cell culture medium, Mean [%] (37 °C (warm), 8h): 97.4673%
PA content in cell culture medium, Mean [%] (37 °C (warm), 24h): 100.568%
PANO content in cell culture medium, Mean [%] (4 °C (cold), 0h): 0%
PANO content in cell culture medium, Mean [%] (4 °C (cold), 2h): 0.06406%
PANO content in cell culture medium, Mean [%] (4 °C (cold), 4h): 0.04788%
PANO content in cell culture medium, Mean [%] (4 °C (cold), 8h): 0.07456%
PANO content in cell culture medium, Mean [%] (4 °C (cold), 24h): 0.022%
PANO content in cell culture medium, Mean [%] (37 °C (warm), 0h): 0%
PANO content in cell culture medium, Mean [%] (37 °C (warm), 2h): 0.04194%
PANO content in cell culture medium, Mean [%] (37 °C (warm), 4h): 0.01862%
PANO content in cell culture medium, Mean [%] (37 °C (warm), 8h): 0.0065%
PANO content in cell culture medium, Mean [%] (37 °C (warm), 24h): 0.0275%
reduction of PA content in the supernatant: only little reduction
PA in medium, Mean [%] (cold, 0h): 100%
PA in medium, single replicates (repl.) (cold, 0h): 100%
PANO in medium, Mean [%] (cold, 0h): 0%
PANO in medium, single replicates (repl.) (cold, 0h): 0%
PA in medium, Mean [%] (cold, 2h): 96.2366%
PA in medium, single replicates (repl.) (cold, 2h): 96.0144% and 91.6565% and 102.06% and 95.215%
PANO in medium, Mean [%] (cold, 2h): 0.05112%
PANO in medium, single replicates (repl.) (cold, 2h): 0.03% and 0.05295% and 0.03688% and 0.08463%
PA in medium, Mean [%] (cold, 4h): 94.7318%
PA in medium, single replicates (repl.) (cold, 4h): 93.7752% and 93.3154% and 101.161% and 90.6753%
PANO in medium, Mean [%] (cold, 4h): 0.03748%
PANO in medium, single replicates (repl.) (cold, 4h): 0.02966% and 0.02637% and 0% and 0.09388%
PA in medium, Mean [%] (cold, 8h): 96.1713%
PA in medium, single replicates (repl.) (cold, 8h): 95.8013% and 89.4137% and 105.78% and 93.6906%
PANO in medium, Mean [%] (cold, 8h): 0.05989%
PANO in medium, single replicates (repl.) (cold, 8h): 0.03944% and 0.1014% and 0% and 0.09868%
PA in medium, Mean [%] (cold, 24h): 93.3405%
PA in medium, single replicates (repl.) (cold, 24h): 92.0698% and 90.9944% and 99.8071% and 90.4909%
PANO in medium, Mean [%] (cold, 24h): 0.01524%
PANO in medium, single replicates (repl.) (cold, 24h): 0.001348% and 0% (2×) and 0.05962%
PA in medium, Mean [%] (warm, 0h): 100%
PA in medium, single replicates (repl.) (warm, 0h): 100%
PANO in medium, Mean [%] (warm, 0h): 0%
PANO in medium, single replicates (repl.) (warm, 0h): 0%
PA in medium, Mean [%] (warm, 2h): 94.9033%
PA in medium, single replicates (repl.) (warm, 2h): 93.3617% and 94.7726% and 98.2992% and 93.1796%
PANO in medium, Mean [%] (warm, 2h): 0.03999%
PANO in medium, single replicates (repl.) (warm, 2h): 0.003057% and 0.04704% and 0.1099% and 0%
PA in medium, Mean [%] (warm, 4h): 89.9787%
PA in medium, single replicates (repl.) (warm, 4h): 93.5042% and 95.5972% and 80.8797% and 89.9336%
PANO in medium, Mean [%] (warm, 4h): 0.01797%
PANO in medium, single replicates (repl.) (warm, 4h): 0% (2×) and 0.07092% and 0.000941%
PA in medium, Mean [%] (warm, 8h): 90.1345%
PA in medium, single replicates (repl.) (warm, 8h): 94.7528% and 91.6017% and 83.3876% and 90.7959%
PANO in medium, Mean [%] (warm, 8h): 0.006117%
PANO in medium, single replicates (repl.) (warm, 8h): 0% (3×) and 0.02447%
PA in medium, Mean [%] (warm, 24h): 92.1206%
PA in medium, single replicates (repl.) (warm, 24h): 92.1111% and 85.5289% and 89.7263% and 101.116%
PANO in medium, Mean [%] (warm, 24h): 0.02621%
PANO in medium, single replicates (repl.) (warm, 24h): 0% (2×) and 0.05428% and 0.05058%

C/C=C1/C[C@@H](C)[C@@](C)(O)C(=O)OC/C2=C/CN(C)CC[C@@H](OC1=O)C2=O [Senkirkine, senkirkine]
PA content in cell culture medium, Mean [%] (4 °C (cold), 8h): 116.261%
PA content in cell culture medium, Mean [%] (4 °C (cold), 24h): 100.349%
PA content in cell culture medium, Mean [%] (37 °C (warm), 24h): 51.3803%
PANO formation in cell culture medium: did not form PANOs
uptake and toxicity (grading): medium
PA in medium, Mean [%] (cold, 0h): 100%
PA in medium, single replicates (repl.) (cold, 0h): 100%
PA in medium, single replicates (repl.) (cold, 2h): 96.9078%
PA in medium, single replicates (repl.) (cold, 4h): 94.744% and 91.9958%
PA in medium, Mean [%] (cold, 8h): 99.7692%
PA in medium, single replicates (repl.) (cold, 8h): 96.8217%
PA in medium, Mean [%] (cold, 24h): 86.0777%
PA in medium, single replicates (repl.) (cold, 24h): 79.1115%
PA in medium, Mean [%] (warm, 0h): 100%
PA in medium, single replicates (repl.) (warm, 0h): 100%
PA in medium, Mean [%] (warm, 2h): 96.897%
PA in medium, single replicates (repl.) (warm, 2h): 86.8159% and 96.0701%
PA in medium, Mean [%] (warm, 4h): 92.4068%
PA in medium, single replicates (repl.) (warm, 4h): 82.3204% and 92.3164%
PA in medium, Mean [%] (warm, 8h): 78.7411%
PA in medium, single replicates (repl.) (warm, 8h): 72.1889% and 78.0729% and 85.9614%
PA in medium, Mean [%] (warm, 24h): 45.8528%
PA in medium, single replicates (repl.) (warm, 24h): 40.9466% and 44.2184% and 52.3933%

From PMC8067754, “Active Transport of Hepatotoxic Pyrrolizidine Alkaloids in HepaRG Cells” (International Journal of Molecular Sciences, 2021)
